In article PMC4667793 (Journal of medicinal chemistry, 2015):
“And” between values parts separate entries of the source, which are not always exact repeats. Identical values can stand only once. Counter-ions that a name gives are not always drawn.

Columns and labels:
MtBPL [1] = target: T1, MtBPL (Mycobacterium tuberculosis, UniProt I6YFP0); details: for -TΔS: calculated from ΔG (displacement) and ΔH (direct titration); for ΔH: direct titration ITC, 25 °C
[2] = system: MDR-TB and XDR-TB strains; details: ten MDR-TB and XDR-TB strains; cited from earlier work
MtBPL [3] = target: T1, MtBPL; details: for ΔG: from K of displacement ITC, 298 K
[4] = cyclonucleoside formation or decomposition at room temperature
MtBPL [5] = target: T1, MtBPL; assay: biochemical
MtBPL [6] = target: T1, MtBPL; assay: biochemical; details: read-out: ΔTm
M. tuberculosis H37Rv = assay: microbe, parasite or virus in culture; details: Mycobacterium tuberculosis

T1 sequence (I6YFP0 whole entry, looked up): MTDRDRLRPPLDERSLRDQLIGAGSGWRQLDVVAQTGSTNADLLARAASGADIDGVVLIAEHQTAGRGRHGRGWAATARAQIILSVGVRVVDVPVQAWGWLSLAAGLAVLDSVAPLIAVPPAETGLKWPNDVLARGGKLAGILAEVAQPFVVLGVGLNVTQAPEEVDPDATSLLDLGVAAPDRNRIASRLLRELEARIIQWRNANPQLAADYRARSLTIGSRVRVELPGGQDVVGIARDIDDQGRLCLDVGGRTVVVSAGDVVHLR

Row | SMILES | -TΔS (MtBPL [1]) [kcal/mol] | ΔH (MtBPL [1]) | MIC [2] [µM] | ΔG (MtBPL [3]) | fold more potent than 14 (KD) (MtBPL [3]) [fold] | chemical stability [4] | Kd (MtBPL [5]) [nM] | ΔTm at 43 µM (MtBPL [6]) [°C] | MIC90 (M. tuberculosis H37Rv) [µM]
1 | Nc1ncnc2c1ncn2[C@@H]1O[C@H](CNS(=O)(=O)NC(=O)CCCC[C@@H]2SC[C@@H]3NC(=O)N[C@@H]32)[C@@H](O)[C@H]1O [Compound 14, 5′-[N-(D-biotinoyl)sulfamoyl]amino-5′-deoxyadenosine triethylammonium salt] | 6.6 ± 0.1 | -18.9 ± 0.1 kcal/mol | 0.16 to 0.625 |  |  |  |  |  | 
2 | CCN(CC)CC.Nc1ncnc2c1ncn2[C@@H]1O[C@H](CNS(=O)(=O)NC(=O)CCCC[C@@H]2SC[C@@H]3NC(=O)N[C@@H]32)[C@@H](O)[C@H]1F [Compound 63, 5′-[N-(D-Biotinoyl)sulfamoyl]amino-2′,5′-dideoxy-2′-fluoroadenosine triethylammonium salt] | 11.8 ± 0.5 | -24.3 kcal/mol and -24.3 ± 0.5 kcal/mol |  | -12.6 ± 0.3 kcal/mol |  |  |  |  | 
3 | CCN(CC)CC.Nc1ncnc2c1ncn2[C@H]1CNC[C@@H](COS(=O)(=O)NC(=O)CCCC[C@@H]2SC[C@@H]3NC(=O)N[C@@H]32)O1 [Compound 82, (2′R,6′S)-9-[6′-({[N-(D-Biotinoyl)sulfamoyl]oxy}methyl)morpholin-2′-yl]adenine triethylammonium salt] | 5.9 ± 0.1 | -18.8 ± 0.0 kcal/mol |  | -12.9 ± 0.9 kcal/mol |  |  |  |  | 
4 | CCN(CC)CC.Nc1ncnc2c1ncn2[C@@H]1O[C@H](CNS(=O)(=O)NC(=O)CCCC[C@@H]2SC[C@@H]3NC(=O)N[C@@H]32)[C@@H](O)[C@H]1N [Compound 47] | 6.5 ± 0.2 | -19.1 ± 0.1 kcal/mol |  | -12.6 ± 1.0 kcal/mol |  |  |  |  | 
5 | CCN(CC)CC.Nc1ncnc2c1ncn2[C@@H]1C[C@H](CNS(=O)(=O)NC(=O)CCCC[C@@H]2SC[C@@H]3NC(=O)N[C@@H]32)[C@@H](O)[C@H]1O [Compound 28] | 7.8 ± 0.2 | -20.2 ± 0.2 kcal/mol |  | -12.4 kcal/mol and -12.4 ± 0.0 kcal/mol |  |  |  |  | 
6 | CCN(CC)CC.Nc1ncnc2c1ncn2[C@H]1C=C[C@@H](CNS(=O)(=O)NC(=O)CCCC[C@@H]2SC[C@@H]3NC(=O)N[C@@H]32)C1 [Compound 34] | 10.3 ± 0.2 | -22.1 ± 0.2 kcal/mol |  | -11.8 ± 0.2 kcal/mol |  |  |  |  | 
7 | CCN(CC)CC.Nc1ncnc2c1ncn2[C@H]1CC[C@@H](CNS(=O)(=O)NC(=O)CCCC[C@@H]2SC[C@@H]3NC(=O)N[C@@H]32)C1 [Compound 36] | 10.7 ± 0.4 | -23.5 ± 0.4 kcal/mol |  | -12.6 ± 0.2 kcal/mol |  |  |  |  | 
8 | [N-]=[N+]=N[C@H]1[C@H](O)[C@@H](COS(=O)(=O)NC(=O)CCCC[C@@H]2SC[C@@H]3NC(=O)N[C@@H]32)O[C@H]1n1cnc2c(N)ncnc21 [Compound 57, 9-{2′-Azido-5′-O-[N-(D-biotinoyl)sulfamoyl]-2′-deoxy-β-D-arabinofuranosyl}adenine triethylammonium salt] | 14.9 ± 0.1 |  |  | -14.4 ± 0.2 kcal/mol | 32 | resisted any cyclonucleoside formation | 0.027 | 17 ± 1 | > 100
9 | CCN(CC)CC.[N-]=[N+]=N[C@@H]1[C@H](O)[C@@H](CNS(=O)(=O)NC(=O)CCCC[C@@H]2SC[C@@H]3NC(=O)N[C@@H]32)O[C@H]1n1cnc2c(N)ncnc21 [Compound 46] | 10.9 ± 0.3 | -23.2 ± 0.2 kcal/mol |  | -12.3 ± 0.6 kcal/mol |  |  |  |  | 
10 | CCN(CC)CC.Nc1ncnc2c1ncn2[C@@H]1O[C@H](CNS(=O)(=O)NC(=O)CCCC[C@@H]2SC[C@@H]3NC(=O)N[C@@H]32)C[C@H]1O [Compound 87, 5′-[N-(D-Biotinoyl)sulfamoyl]amino-3′,5′-dideoxyadenosine triethylammonium salt] | 8.8 ± 0.6 | -21.4 ± 0.5 kcal/mol |  | -12.6 ± 0.1 kcal/mol |  |  |  |  | 
11 | CCN(CC)CC.C[C@@]1(O)[C@H](O)[C@@H](COS(=O)(=O)NC(=O)CCCC[C@@H]2SC[C@@H]3NC(=O)N[C@@H]32)O[C@H]1n1cnc2c(N)ncnc21 [Compound 73, 5′-O-[N-(D-Biotinoyl)sulfamoyl]-β-2'-methyladenosine triethylammonium salt] | 8.1 ± 0.5 | -20.3 ± 0.4 kcal/mol |  | -12.4 ± 0.4 kcal/mol |  | resisted any cyclonucleoside formation |  |  | 
12 | CCN(CC)CC.Nc1ncnc2c1ncn2[C@@H]1O[C@H](COS(=O)(=O)NC(=O)CCCC[C@@H]2SC[C@@H]3NC(=O)N[C@@H]32)[C@@H](O)[C@@H]1F [Compound 69, 9-{5′-O-[N-(D-Biotinoyl)sulfamoyl]-2′-deoxy-2′-fluoro-β-D-arabinofuranosyl}adenine triethylammonium salt] | 14.7 ± 0.5 | -28.4 kcal/mol and -28.4 ± 0.6 kcal/mol |  | -13.4 ± 0.0 kcal/mol |  | resisted any cyclonucleoside formation |  |  | 
